According to PubChem BioAssay AID1996:
Converted amounts (≈) assume the structure as drawn.

Settings: buffer; pH 7.4; 200.0 µM

Compound | solubility kinetic
O=C(NCc1ccccc1Cl)[C@@H]1CCCN1S(=O)(=O)c1ccc(Cl)cc1 | 38.4 µg/mL (≈ 92.9 µM)
CC(C)(C)c1csc(NC(=O)c2ccccc2O)n1 | 9.3 µg/mL (≈ 33.7 µM)
COCCNC(=S)N(CCc1c(C)[nH]c2ccccc12)Cc1ccco1 | 27.9 µg/mL (≈ 75.1 µM)
CN(C(=O)Cn1cnc2sccc2c1=O)C1CCCCC1 | > 45.8 µg/mL
CC(C)CN(C(=O)C1CCC1)c1c(N)n(Cc2ccccc2)c(=O)[nH]c1=O | 36.6 µg/mL (≈ 98.8 µM)
COc1cccc(CNC(=O)CCSCc2ccccc2F)c1 | 41.8 µg/mL (≈ 125 µM)
c1ccc(OCc2nc(-c3ccncc3)no2)cc1 | 36.5 µg/mL (≈ 144 µM)
COc1ccc(Nc2nc3cc(C)ccc3cc2C#N)cc1 | < 0.2 µg/mL
C/C(=N\NC(N)=S)c1cccnc1 | > 29.1 µg/mL
CC(=O)Nc1ccc(C(=O)OCc2ccc(F)cc2Cl)cc1 | 1.7 µg/mL (≈ 5.28 µM)
CCOc1ccc(C2NC(=O)NC(C)=C2[N+](=O)[O-])cc1OC (centres undefined) | 45.5 µg/mL (≈ 148 µM)
O=C(COC(=O)c1cc(S(=O)(=O)N2CCOCC2)ccc1F)NCCc1ccc(F)cc1 | > 70.3 µg/mL
CCC(C)(NC(=O)c1ccc2c(c1)OCO2)C(=O)NC1CCCCC1 (centres undefined) | > 52 µg/mL
O=C(NCc1ccc2c(c1)OCO2)c1c(Cl)cccc1Cl | 15 µg/mL (≈ 46.3 µM)
O=C(/C=C/NCc1cccnc1)c1ccc(-c2ccccc2)cc1 | 2.8 µg/mL (≈ 8.91 µM)
Nc1ccccc1C(=O)N1CCc2ccccc21 | > 35.7 µg/mL
COc1cccc2cc(C(=O)NCc3ccc(C)cc3)c(=O)oc12 | < 0.7 µg/mL
COC(=O)c1ccccc1NC(=O)Nc1ccc(C)cn1 | > 42.8 µg/mL
O=C(Nc1nccs1)c1ccc(-c2ccccc2[N+](=O)[O-])o1 | 5.6 µg/mL (≈ 17.8 µM)
Cc1nc2ccccc2c(=O)n1CCCN1CCOCC1 | > 43.1 µg/mL
CCOc1ccc(NC(=S)Nc2cccnc2)cc1 | 33.3 µg/mL (≈ 122 µM)
Cl.OCCN(CC#CC(O)(c1ccccc1)C1CCCCC1)CCO (centres undefined) | 53 µg/mL
O=C(NCCC1=CCCCC1)C1CCN(C(=O)Cc2ccccc2)CC1 | > 53.2 µg/mL
Fc1ccccc1CN1CCN(c2ccc(Cl)cc2)CC1 | 1 µg/mL (≈ 3.28 µM)

Compound | solubility kinetic
O=[N+]([O-])c1cccc(CSc2ncnc3ccccc23)c1 | 2 µg/mL (≈ 6.73 µM)
C=CCn1c(O)c(C=Nc2c(C)n(C)n(-c3ccccc3)c2=O)c(=O)[nH]c1=O | > 57.2 µg/mL
CC(=O)Nc1ccc(S(=O)(=O)NCCc2ccccn2)cc1 | 44 µg/mL (≈ 138 µM)
O=C(Nc1ccccc1)c1cn(CCBr)cn1 | > 44.1 µg/mL
Cc1ccc(S(=O)(=O)N2CCCCCC2)cc1C(=O)NCc1ccccn1 | 55.7 µg/mL (≈ 144 µM)
C=CCN1CCN(C(=O)c2oc3ccccc3c2C)CC1 | > 42.7 µg/mL
CC(C(=O)O)N1CCCCC1.Cl (centres undefined) | 24.3 µg/mL
CCc1cc(C(=O)c2ccc(OC)cc2)c(NC(=O)CN2CCCCC2)s1 | < 0.4 µg/mL
CN(C)CC#CCC(O)(c1ccccc1)C1CCCCC1 (centres undefined) | 42.7 µg/mL (≈ 150 µM)
COc1cccc(N2CCN(c3ccc(S(=O)(=O)N4CCN(C)CC4)cc3[N+](=O)[O-])CC2)c1 | 11.9 µg/mL (≈ 25 µM)
CC(CC(=O)O)CC(=O)Nc1ccc(Br)cc1 (centres undefined) | > 45 µg/mL
CC1CCCC(NC(=O)COC(=O)c2ccc(Br)o2)C1C (centres undefined) | 8.2 µg/mL (≈ 22.9 µM)
COc1ccc(-c2cnc(N)nc2-c2ccc(OC)cc2)cc1 | 2.8 µg/mL (≈ 9.11 µM)
Cc1ccc(NC(=O)CN2CCCC2c2cccn2C)c(Br)c1 (centres undefined) | 11.4 µg/mL (≈ 30.3 µM)
CC(NC(=O)COC(=O)c1cc(Cl)nc(Cl)c1)c1ccccc1 (centres undefined) | > 53 µg/mL
Cc1cc(C)c2nc(Cl)c(C3NC(=O)c4ccccc4N3)cc2c1 (centres undefined) | < 0.2 µg/mL
CN(C(=O)c1ccco1)c1nc(-c2ccc(F)cc2)cs1 | < 0.3 µg/mL
Cc1ccc(S(=O)(=O)N2CCN3CCCC3C2)cc1 (centres undefined) | > 42.1 µg/mL
CCc1ccc(NC(=S)NCC2CCCN2CC)cc1 (centres undefined) | > 43.7 µg/mL
Cc1ccc(C(=O)NCc2ccco2)c(C)c1 | 33.6 µg/mL (≈ 147 µM)
CSc1cccc(NC(C)C(=O)NCc2ccccc2)c1 (centres undefined) | 37.4 µg/mL (≈ 124 µM)
O=C(Nc1nc(-c2ccc(Cl)s2)cs1)c1ccco1 | 9.2 µg/mL (≈ 29.6 µM)
CC(N=Cc1c(O)n(C2CC2)c(=S)[nH]c1=O)c1ccccc1 (centres undefined) | 2.6 µg/mL (≈ 8.24 µM)
Cc1cc(=O)[nH]c(SCC(=O)Nc2ccccc2[N+](=O)[O-])n1 | > 48 µg/mL

Compound | solubility kinetic
CCCCNC(=O)CSc1nc(CCC)nc2ccccc12 | 4 µg/mL (≈ 12.6 µM)
O=C(COC(=O)c1cccc(S(=O)(=O)N2CCOCC2)c1)NCc1ccccc1 | > 62.8 µg/mL
CCOc1ccccc1NC(=S)N1CCCc2ccccc21 | 10.5 µg/mL (≈ 33.6 µM)
COc1cccc(OCC(O)CNC2CCCC2)c1.Cl (centres undefined) | > 45.3 µg/mL
COCCOC(=O)C(CC(=O)O)NCc1ccco1 (centres undefined) | > 40.7 µg/mL
Nc1nnc(CC(=O)Nc2ccccc2)s1 | > 35.1 µg/mL
CS(=O)(=NS(=O)(=O)c1ccc(Cl)cc1)c1ccccc1 (centres undefined) | > 49.5 µg/mL
OCc1cc(Br)ccc1OCc1nc2ccccc2s1 | < 0.8 µg/mL
Cc1nc(-c2ccc(Cl)cc2)sc1C(=O)O | 33.2 µg/mL (≈ 131 µM)
CCOC(=O)/C=C1\SCC(=O)N1CC(=O)Nc1cc(S(=O)(=O)N(C)C)ccc1C | 26.2 µg/mL (≈ 59.3 µM)
COc1ccc(OC)c(NC(=O)NC2CCCCCCC2)c1 | 2.2 µg/mL (≈ 7.18 µM)
CCC1CCCCN1CC(O)COCc1cccc(OC)c1 (centres undefined) | 31.4 µg/mL (≈ 102 µM)
Cc1csc(SCC(=O)NC2CCCC2)n1 | > 38.5 µg/mL
CCC(C)Nc1nc(-c2ccccn2)nc2ccccc12 (centres undefined) | > 41.8 µg/mL
O=C(CN1C(=O)c2ccccc2S1(=O)=O)NCc1ccco1 | > 48 µg/mL
O=C(CC12CC3CC(CC(C3)C1)C2)NCc1ccccc1 | 0.6 µg/mL (≈ 2.12 µM)
Cc1c(C(=O)O)sc2nc(/C=C/c3cccc(F)c3)[nH]c(=O)c12 | 41.3 µg/mL (≈ 125 µM)
O=C(Cn1c(C(=O)OCCO)cc2ccccc21)c1ccccc1 | 6.8 µg/mL (≈ 21 µM)
Cc1c(C(=O)OCC(=O)N2C(C)CCCC2C)oc2ccccc12 (centres undefined) | 44.1 µg/mL (≈ 134 µM)
CCOP(=O)(OCC)C(NC(=O)Nc1ccc(C)cc1)C(N)=O (centres undefined) | > 51.5 µg/mL
Cc1ccc(N2CC(C(=O)NCc3ccco3)CC2=O)cc1Cl (centres undefined) | 30.8 µg/mL (≈ 92.6 µM)
COC(=O)C1=C(C)N(C)C(=S)NC1c1cc(OC)ccc1OC (centres undefined) | 36.5 µg/mL (≈ 108 µM)
CCC(=NCCN1CCOCC1)c1c(O)n(C2CCCCC2)c(=O)[nH]c1=O | 52.6 µg/mL (≈ 139 µM)
O=C(NN=Cc1cc(Br)c(O)c(Br)c1)c1ccccc1NS(=O)(=O)c1cccs1 | > 83.9 µg/mL

Compound | solubility kinetic
C#CCOc1ccccc1/C=C1/C(=O)ON=C1C | 34.9 µg/mL (≈ 145 µM)
Cc1nsc2nc3c(F)c(F)c(F)c(F)c3cc12 | 4.4 µg/mL (≈ 16.2 µM)
COCCNC(=O)c1ccccc1NC(=O)c1cccc([N+](=O)[O-])c1C | 53.5 µg/mL (≈ 150 µM)
C=CCOc1nc(-c2ccccc2Cl)nc2ccccc12 | 0.7 µg/mL (≈ 2.36 µM)
Cc1ccc(C)c(NC(=O)CN(C)C(C)C(=O)N2CCCC2)c1 (centres undefined) | 42.1 µg/mL (≈ 133 µM)
COc1ccc(S(=O)(=O)N2CCOCC2)cc1NC(=O)CN(C)CC(=O)Nc1cccc(F)c1 | > 74.2 µg/mL
CC1CCN(C(=O)Cn2cc([N+](=O)[O-])ccc2=O)c2ccccc2S1 (centres undefined) | > 53.9 µg/mL
CCC1(C)CC(=O)N(c2ccc(F)c(Cl)c2)C(=O)C1 | 14 µg/mL (≈ 49.3 µM)
Cc1ccc(C(=O)C2=C(O)C(=O)N(Cc3ccco3)C2c2ccc(N(C)C)cc2)o1 (centres undefined) | > 61 µg/mL
O=C(Nc1ccc2c(c1)OCCO2)c1cc(F)c(F)cc1Cl | 2.8 µg/mL (≈ 8.6 µM)
O=C(NCCNc1ccc([N+](=O)[O-])cc1)c1ccc(Cl)cc1 | 1.9 µg/mL (≈ 5.94 µM)
O=C(NCCNc1ccc([N+](=O)[O-])cc1)c1cccs1 | 6.7 µg/mL (≈ 23 µM)
O=C(Nc1cccc2cccnc12)c1ccc(Cl)cc1 | < 0.3 µg/mL
O=c1[nH]cnc(O)c1C(c1cccc([N+](=O)[O-])c1)c1c(O)nc[nH]c1=O | > 53.6 µg/mL
O=C(CCSCc1ccc(Cl)cc1)NCc1cccs1 | 28.3 µg/mL (≈ 86.8 µM)
O=C(OCC(=O)N1CCc2ccccc21)c1ccccn1 | > 42.3 µg/mL
Cc1ccc(C(=O)NCCNC(=O)c2ccc(F)cc2)cn1 | > 45.2 µg/mL
CC(=O)c1ccc(-n2c(CCC(=O)O)ccc2-c2ccccc2)cc1 | 41.5 µg/mL (≈ 124 µM)
CCCCN1C(=O)N(C)C2NC(=S)NC21 (centres undefined) | > 34.2 µg/mL
Cc1cc(C(=O)O)ccc1N=Cc1c(O)ccc2ccccc12 | > 45.8 µg/mL
CCCc1c(O)nc(SCC(=O)NCc2ccco2)[nH]c1=O | > 48.5 µg/mL
CCOC(=O)c1[nH]cnc1C(=O)Nc1ccc(C)cc1 | 4.9 µg/mL (≈ 17.9 µM)
CCOC(=O)N1CCN(C(=O)Nc2cccc3ccccc23)CC1 | > 49.1 µg/mL
CSc1ncc(Cl)c(C(=O)Nc2cccnc2)n1 | > 42.1 µg/mL

Compound | solubility kinetic
CNc1nc(-c2ccc(S(=O)(=O)N3CCCCC3)cc2)cs1 | 2.8 µg/mL (≈ 8.3 µM)
C=CCn1c(C)nnc1SCC(=O)NC1CCCCC1 | > 44.2 µg/mL
COc1ccc(N=C2CCS(=O)(=O)c3sccc32)cc1 | > 46.1 µg/mL
CCOC(=O)c1sc(Nc2ccc(OCC)cc2)nc1C | 0.9 µg/mL (≈ 2.94 µM)
O=C(NCc1ccco1)c1ccc2c(c1)N(Cc1ccccc1)CCS2 | 12.9 µg/mL (≈ 35.4 µM)
OC(COc1ccccc1)CN1CCCC1 (centres undefined) | > 33.2 µg/mL
CCc1nc2oc3ccccc3c(=O)c2cc1C(=O)OC | 4.2 µg/mL (≈ 14.8 µM)
CC(C)[C@H](NC(=O)c1ccccc1)C(=O)OCC(=O)Nc1ncc(Cl)cc1Cl | 46 µg/mL (≈ 108 µM)
c1ccc(N2CCN(Cc3nc4ccccc4[nH]3)CC2)nc1 | 41.3 µg/mL (≈ 141 µM)
O=C(CSc1ccccn1)Nc1ccc2[nH]c(=O)[nH]c2c1 | > 45.1 µg/mL
Cc1cc(NC(=O)C2CC(=O)N(c3cccc(Cl)c3)C2)no1 (centres undefined) | 16.3 µg/mL (≈ 51 µM)
O=C(NCCNC(=O)c1ccc(Cl)cc1Cl)c1cnccn1 | 37 µg/mL (≈ 109 µM)
CC(C)(C)C(=O)N1CCN(c2ccc([N+](=O)[O-])cc2-n2cccc2)CC1 | 1.4 µg/mL (≈ 3.93 µM)
O=C(c1ccc(Cl)cc1)N1CCC2(CC1)OCCO2 | 39.6 µg/mL (≈ 141 µM)
CCCCn1c(N)c(N(CC)C(=O)c2cccc(F)c2)c(=O)[nH]c1=O | 52.1 µg/mL (≈ 150 µM)
N#Cc1cc(N2CCOCC2)nc2ccccc12 | 15.3 µg/mL (≈ 63.9 µM)
Cc1ccccc1C(=O)Nc1ccc(N2CCN(C)CC2)nc1 | > 46.6 µg/mL
CCCc1nc2ccccc2c(=O)n1CC(=O)c1ccc(F)cc1 | 2.2 µg/mL (≈ 6.78 µM)
COC(=O)CN1C(=O)N/C(=C/c2ccc(OC)c(C)c2OC)C1=O | 4 µg/mL (≈ 12 µM)
COc1ccc(NC(=O)Nc2ccncc2)c(OC)c1 | > 41 µg/mL
Cc1ccc(OC(C)C(=O)OCC(=O)Nc2sccc2C(N)=O)cc1 (centres undefined) | > 54.4 µg/mL
S=c1nc(NCc2ccc3c(c2)OCO3)c2ccccc2[nH]1 | 0.6 µg/mL (≈ 1.93 µM)
O=C(C1CC(=O)N(c2ccccc2F)C1)N1CCOCC1 (centres undefined) | > 43.8 µg/mL
